The values below come from article PMC11513923, “Discovery of ZLC491 as a Potent, Selective, and Orally Bioavailable CDK12/13 PROTAC Degrader” (Journal of Medicinal Chemistry, 2024).

Assay [1] has as its target T1, CDK13 (Homo sapiens, UniProt Q14004).
T1 construct: Immunoblotting of CDK12 and CDK13 in MDA-MB-231 cells treated with increasing concentrations of ZLC491 for 15 h; endogenous in cells; host or cells: MDA-MB-231
Kind of assay: CDK13 degradation in MDA-MB-231 cells by immunoblotting.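 As to Protein Degradation (%DMSO control, 0.3 μM) CDK13: percent of CDK13 protein degraded relative to DMSO control.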 It counts as cell-based. Conditions: 0.3 μM; for Protein Degradation (%DMSO control, 0.3 μM) CDK13: MDA-MB-231 cells, 15 h, immunoblotting, normalized against α-tubulin; for Degradation rates of CDK13 at 0.3 μM: supplementary CSV. The protocol:
(§1) The degradation efficiency of the new molecules was assessed by immunoblotting after treatment with the compounds at 0.3 μM in MD-MBA-231 cells for 15 h.
(§2) To further characterize the compound, we determined the half-degradation concentration (DC50) values of ZLC491 in MDA-MB-231 cells. […] We also treated MDA-MB-231 cells with 1 μM ZLC491 at various time points.
(§3) (A) Immunoblotting of CDK12 and CDK13 in MDA-MB-231 cells treated with increasing concentrations of ZLC491 for 15 h (left). Percent remaining CDK12 and CDK13 proteins were plotted for DC50 determination (right). Protein levels were quantified using ImageJ and normalized to corresponding α-tubulin, then plotted using Graphpad Prism 8.0. The data were representative of three independent experiments; (B) immunoblotting of CDK12 and CDK13 proteins in MDA-MB-231 cells treated with ZLC491 for various time points; immunoblotting of CDK12 and CDK13 in HCC38 (C) and MDA-MB-436 (D) cells treated with increasing concentrations of ZLC491 for 15 h. α-Tubulin was used as a loading control. TEXT PRINTED IN THE PICTURE: (A) ZLC491: MDA-MB-231: CDK12 DC50 = 0.032μM; MDA-MB-231: CDK13 DC50 = 0.028μM DOUBTS OF THE COPYIST ABOUT THIS PICTURE: ZLC491, CDK12 DC50: 0.032 read from small print, the digits 3 and 2 are uncertain / ZLC491, CDK13 DC50: 0.028 read from small print, the last digit may be 8, 6 or 3
(§4) Generally, the tested cells were washed by ice-cold PBS buffer (Gibco) and lysed with an SDS lysis buffer (62.5 mM Tris, 2% w/v SDS, 10 glycerol, 50 mM DTT, 0.01% w/v bromophenol blue) on ice, after which the protein lysate samples were collected to 1.5 mL microcentrifuge tubes and treated with ultrasonic for 10 s, following with a 100 °C incubation for 10 min and a 4 °C centrifugation of 12000 rpm for 10 min. An equal amount of protein was loaded to 4–8% Bis-Tris gels and underwent an SDS-PAGE electrophoresis at 55V for 30 min and 95V for 90 min. Proteins on gels were then transferred to a polyvinylidene difluoride (PVDF) membrane (Bio-Rad) with a wet electro transfer system (Bio-Rad). The PVDF membrane was cut into bands and incubated in a blocking reagent (5% defatted milk powder dissolved in TBST) at room temperature for 1–2 h. Incubate membrane and primary antibody (at the appropriate dilution and diluent as recommended in the product webpage) at 4 °C for 12–14 h, followed with three times washes by TBST. The washed membranes were incubated in a secondary antibody solution (HRP-linked antirabbit IgG or antimouse IgG (CST), 1:2000 diluted into TBST) at room temperature for 2 h. Membranes were photographed in Amersham Imager 800 system using StarSignal plus regent (GenStar) or Omni-ECL reagent (EpiZyme). Compounds MG132, MLN4924, Bafilomycin A1 and pomalidomide were purchased from MedChemExpress (MCE) LLC.
On the technique in general: A western blot detects proteins with antibodies after separation by electrophoresis.

The target of assay [2] is CDK12 (Homo sapiens, UniProt Q9NYV4). Put plainly: CDK12 degradation in MDA-MB-231 cells by immunoblotting. It counts as cell-based. Details: Immunoblotting of CDK12 and CDK13 in MDA-MB-231 cells treated with increasing concentrations of ZLC491 for 15 h; endogenous in cells; host or cells: MDA-MB-231. The note with it: 0.3 μM; for Protein Degradation (%DMSO control, 0.3 μM) CDK12: MDA-MB-231 cells, 15 h, immunoblotting, normalized against α-tubulin; for Degradation rates of CDK12 at 0.3 μM: supplementary CSV. As to the method:
as §1, §2, §3, §4

Sequence of CDK12 (Q9NYV4 whole entry): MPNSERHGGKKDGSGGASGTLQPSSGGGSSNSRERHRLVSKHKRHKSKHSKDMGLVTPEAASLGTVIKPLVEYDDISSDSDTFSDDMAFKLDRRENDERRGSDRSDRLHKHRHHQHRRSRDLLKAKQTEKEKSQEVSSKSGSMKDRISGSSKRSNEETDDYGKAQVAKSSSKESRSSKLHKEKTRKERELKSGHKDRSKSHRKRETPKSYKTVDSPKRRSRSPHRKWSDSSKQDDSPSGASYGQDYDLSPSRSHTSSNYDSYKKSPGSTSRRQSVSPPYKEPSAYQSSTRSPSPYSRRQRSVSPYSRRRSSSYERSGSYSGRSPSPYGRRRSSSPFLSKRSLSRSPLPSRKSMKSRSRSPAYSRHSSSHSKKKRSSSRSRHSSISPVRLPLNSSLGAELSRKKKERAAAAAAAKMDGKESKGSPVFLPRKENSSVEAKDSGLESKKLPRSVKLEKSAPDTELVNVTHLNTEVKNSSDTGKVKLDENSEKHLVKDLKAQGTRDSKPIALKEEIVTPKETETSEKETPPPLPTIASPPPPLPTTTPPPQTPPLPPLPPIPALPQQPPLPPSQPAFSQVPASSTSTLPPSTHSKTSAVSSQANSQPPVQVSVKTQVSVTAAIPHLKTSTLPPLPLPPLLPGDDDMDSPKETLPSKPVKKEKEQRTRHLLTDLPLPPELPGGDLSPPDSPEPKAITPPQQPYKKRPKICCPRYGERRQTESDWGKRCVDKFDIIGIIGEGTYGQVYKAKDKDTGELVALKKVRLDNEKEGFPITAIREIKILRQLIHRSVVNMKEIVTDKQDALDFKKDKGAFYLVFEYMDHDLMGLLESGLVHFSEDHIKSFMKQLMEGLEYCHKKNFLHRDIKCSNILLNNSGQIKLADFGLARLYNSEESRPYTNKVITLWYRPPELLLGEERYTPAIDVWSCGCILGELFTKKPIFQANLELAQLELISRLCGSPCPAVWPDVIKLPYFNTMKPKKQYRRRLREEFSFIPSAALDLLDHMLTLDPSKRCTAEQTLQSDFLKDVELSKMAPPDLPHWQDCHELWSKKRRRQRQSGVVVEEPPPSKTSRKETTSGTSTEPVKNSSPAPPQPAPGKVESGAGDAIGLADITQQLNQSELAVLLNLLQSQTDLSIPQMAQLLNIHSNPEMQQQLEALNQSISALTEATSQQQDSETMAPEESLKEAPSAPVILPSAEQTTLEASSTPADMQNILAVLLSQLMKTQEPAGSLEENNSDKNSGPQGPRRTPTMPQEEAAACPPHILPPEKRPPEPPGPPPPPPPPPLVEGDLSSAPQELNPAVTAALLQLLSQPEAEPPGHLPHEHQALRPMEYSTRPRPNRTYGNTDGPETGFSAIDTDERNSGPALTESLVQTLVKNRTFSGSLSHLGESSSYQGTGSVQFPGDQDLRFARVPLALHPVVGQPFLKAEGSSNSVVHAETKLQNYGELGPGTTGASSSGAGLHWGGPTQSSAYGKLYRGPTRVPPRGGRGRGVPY
Sequence of CDK12 (O75909 whole entry partner): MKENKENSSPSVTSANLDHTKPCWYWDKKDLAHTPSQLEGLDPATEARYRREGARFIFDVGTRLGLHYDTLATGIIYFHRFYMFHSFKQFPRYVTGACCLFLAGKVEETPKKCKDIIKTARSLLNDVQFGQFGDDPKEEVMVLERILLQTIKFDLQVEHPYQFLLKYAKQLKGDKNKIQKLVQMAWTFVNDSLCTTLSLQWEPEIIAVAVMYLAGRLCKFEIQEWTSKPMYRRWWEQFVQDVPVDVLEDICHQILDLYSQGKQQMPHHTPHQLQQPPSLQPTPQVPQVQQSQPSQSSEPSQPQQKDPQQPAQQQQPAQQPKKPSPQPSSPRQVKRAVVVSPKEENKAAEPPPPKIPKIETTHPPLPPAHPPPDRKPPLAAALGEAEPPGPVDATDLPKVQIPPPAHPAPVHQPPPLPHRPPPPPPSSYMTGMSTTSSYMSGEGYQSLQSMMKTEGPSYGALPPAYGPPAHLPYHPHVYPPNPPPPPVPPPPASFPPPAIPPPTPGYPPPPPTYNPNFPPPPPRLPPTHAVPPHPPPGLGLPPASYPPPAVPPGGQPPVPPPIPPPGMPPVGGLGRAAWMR
T1 sequence (Q14004 whole entry): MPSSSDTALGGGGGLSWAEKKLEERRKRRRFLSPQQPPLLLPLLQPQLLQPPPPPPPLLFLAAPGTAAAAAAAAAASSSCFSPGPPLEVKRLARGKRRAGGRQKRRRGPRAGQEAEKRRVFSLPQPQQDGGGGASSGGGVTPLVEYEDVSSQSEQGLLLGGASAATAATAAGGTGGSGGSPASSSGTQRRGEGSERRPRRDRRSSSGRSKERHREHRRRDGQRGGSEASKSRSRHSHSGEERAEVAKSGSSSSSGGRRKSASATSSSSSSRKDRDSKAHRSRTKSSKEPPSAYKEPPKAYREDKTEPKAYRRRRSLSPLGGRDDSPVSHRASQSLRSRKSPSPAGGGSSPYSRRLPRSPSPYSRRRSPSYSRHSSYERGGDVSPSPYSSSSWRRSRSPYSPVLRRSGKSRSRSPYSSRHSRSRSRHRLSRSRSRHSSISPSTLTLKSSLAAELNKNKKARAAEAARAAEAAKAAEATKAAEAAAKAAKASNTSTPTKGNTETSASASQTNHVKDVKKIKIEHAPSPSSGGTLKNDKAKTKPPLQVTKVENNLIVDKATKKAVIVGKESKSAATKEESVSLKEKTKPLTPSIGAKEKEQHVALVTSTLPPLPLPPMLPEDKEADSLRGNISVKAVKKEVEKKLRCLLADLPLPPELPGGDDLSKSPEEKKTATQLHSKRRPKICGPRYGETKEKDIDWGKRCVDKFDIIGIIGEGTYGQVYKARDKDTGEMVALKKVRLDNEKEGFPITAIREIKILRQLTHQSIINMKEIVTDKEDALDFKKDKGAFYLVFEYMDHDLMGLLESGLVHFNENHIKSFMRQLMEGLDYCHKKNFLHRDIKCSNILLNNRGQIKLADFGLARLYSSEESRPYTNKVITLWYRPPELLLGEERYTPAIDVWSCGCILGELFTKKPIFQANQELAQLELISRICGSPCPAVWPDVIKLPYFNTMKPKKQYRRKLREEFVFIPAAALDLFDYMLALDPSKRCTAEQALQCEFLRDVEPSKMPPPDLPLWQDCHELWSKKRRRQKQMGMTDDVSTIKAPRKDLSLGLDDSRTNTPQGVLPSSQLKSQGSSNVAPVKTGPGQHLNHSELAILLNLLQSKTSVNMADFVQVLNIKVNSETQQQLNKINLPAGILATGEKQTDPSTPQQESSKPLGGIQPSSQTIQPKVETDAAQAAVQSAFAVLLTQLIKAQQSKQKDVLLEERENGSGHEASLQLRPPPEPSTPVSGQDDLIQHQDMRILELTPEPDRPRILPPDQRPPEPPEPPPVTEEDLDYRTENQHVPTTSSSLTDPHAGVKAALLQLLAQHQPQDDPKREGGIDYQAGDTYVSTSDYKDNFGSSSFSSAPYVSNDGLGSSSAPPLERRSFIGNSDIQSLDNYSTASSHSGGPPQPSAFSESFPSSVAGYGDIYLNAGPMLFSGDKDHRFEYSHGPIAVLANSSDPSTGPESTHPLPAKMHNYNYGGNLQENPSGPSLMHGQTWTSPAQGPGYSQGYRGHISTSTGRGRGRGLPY
T1 sequence (O75909 whole entry partner): as the sequence (O75909 whole entry partner) above

With `N#Cc1ccc(N[C@H]2CC[C@H](N(C(=O)NCc3ccccc3)c3ccc(N4CCN(CC5CCN(c6ccc7c(c6)C(=O)N(C6CCC(=O)NC6=O)C7=O)CC5)CC4)cc3)CC2)nc1` (stereo partly drawn) [4g, 3-Benzyl-1-((1r,4r)-4-((5-cyanopyridin-2-yl)amino)cyclohexyl)-1-(4-(4-((1-(2-(2,6-dioxopiperidin-3-yl)-1,3-dioxoisoindolin-5-yl)piperidin-4-yl)methyl)piperazin-1-yl)phenyl)urea], in assay [1], the “Protein Degradation (%DMSO control, 0.3 μM) CDK13” value is listed as 84% and the Degradation rates of CDK13 at 0.3 μM came out at 84%. In assay [2], the “Protein Degradation (%DMSO control, 0.3 μM) CDK12” value came to 74% and the Degradation rates of CDK12 at 0.3 μM is 74%.

For the molecule `N#Cc1ccc(N[C@H]2CC[C@H](N(C(=O)NCc3ccccc3)c3ccc(N4CCN(CC5CCN(c6cc7c(cc6F)C(=O)N(C6CCC(=O)NC6=O)C7=O)CC5)CC4)cc3)CC2)nc1` (stereo partly drawn) [4g-F, 3-Benzyl-1-((1r,4r)-4-((5-cyanopyridin-2-yl)amino)cyclohexyl)-1-(4-(4-((1-(2-(2,6-dioxopiperidin-3-yl)-6-fluoro-1,3-dioxoisoindolin-5-yl)piperidin-4-yl)methyl)piperazin-1-yl)phenyl)urea], in assay [1], the “Protein Degradation (%DMSO control, 0.3 μM) CDK13” value came to 57% and the Degradation rates of CDK13 at 0.3 μM worked out at 57%. For the same molecule, in assay [2], the “Protein Degradation (%DMSO control, 0.3 μM) CDK12” value turned out to be 53% and the Degradation rates of CDK12 at 0.3 μM turned out to be 53%.

As to `N#Cc1ccc(N[C@H]2CC[C@H](N(C(=O)NCc3ccccc3)c3ccc(N4CC(CN5CCN(c6ccc7c(c6)C(=O)N(C6CCC(=O)NC6=O)C7=O)CC5)C4)cc3)CC2)nc1` (stereo partly drawn) [4h, 3-Benzyl-1-((1r,4r)-4-((5-cyanopyridin-2-yl)amino)cyclohexyl)-1-(4-(3-((4-(2-(2,6-dioxopiperidin-3-yl)-1,3-dioxoisoindolin-5-yl)piperazin-1-yl)methyl)azetidin-1-yl)phenyl)urea], in assay [1], the “Protein Degradation (%DMSO control, 0.3 μM) CDK13” value is 61% and the Degradation rates of CDK13 at 0.3 μM worked out at 61%. In addition, in assay [2], the “Protein Degradation (%DMSO control, 0.3 μM) CDK12” value amounted to 37% and the Degradation rates of CDK12 at 0.3 μM amounted to 37%.

In the case of `N#Cc1ccc(N[C@H]2CC[C@H](N(C(=O)NCc3ccccc3)c3ccc(N4CCC(CN5CCN(c6ccc7c(c6)C(=O)N(C6CCC(=O)NC6=O)C7=O)CC5)C4)cc3)CC2)nc1` (stereo partly drawn) [4i, 3-Benzyl-1-((1r,4r)-4-((5-cyanopyridin-2-yl)amino)cyclohexyl)-1-(4-(3-((4-(2-(2,6-dioxopiperidin-3-yl)-1,3-dioxoisoindolin-5-yl)piperazin-1-yl)methyl)pyrrolidin-1-yl)phenyl)urea], in assay [1], the “Protein Degradation (%DMSO control, 0.3 μM) CDK13” value is given as 16% and the Degradation rates of CDK13 at 0.3 μM stood at 16%. In addition, in assay [2], the “Protein Degradation (%DMSO control, 0.3 μM) CDK12” value is given as 28% and the Degradation rates of CDK12 at 0.3 μM was found to be 28%.

On to `N#Cc1ccc(N[C@H]2CC[C@H](N(C(=O)NCc3ccccc3)c3ccc(N4CCC(CN5CCN(c6ccc7c(c6)C(=O)N(C6CCC(=O)NC6=O)C7=O)CC5)CC4)cc3)CC2)nc1` (stereo partly drawn) [4j, 3-Benzyl-1-((1r,4r)-4-((5-cyanopyridin-2-yl)amino)cyclohexyl)-1-(4-(4-((4-(2-(2,6-dioxopiperidin-3-yl)-1,3-dioxoisoindolin-5-yl)piperazin-1-yl)methyl)piperidin-1-yl)phenyl)urea], for which, in assay [1], the “Protein Degradation (%DMSO control, 0.3 μM) CDK13” value turned out to be 71% and the Degradation rates of CDK13 at 0.3 μM stood at 71%. Also, in assay [2], the “Protein Degradation (%DMSO control, 0.3 μM) CDK12” value was 49% and the Degradation rates of CDK12 at 0.3 μM stood at 49%.

In the case of `N#Cc1ccc(N[C@H]2CC[C@H](N(C(=O)NCc3ccccc3)c3ccc(N4CCN(C5CN(c6ccc7c(c6)C(=O)N(C6CCC(=O)NC6=O)C7=O)C5)CC4)cc3)CC2)nc1` (stereo partly drawn) [4k, 3-Benzyl-1-((1r,4r)-4-((5-cyanopyridin-2-yl)amino)cyclohexyl)-1-(4-(4-(1-(2-(2,6-dioxopiperidin-3-yl)-1,3-dioxoisoindolin-5-yl)azetidin-3-yl)piperazin-1-yl)phenyl)urea], in assay [1], the “Protein Degradation (%DMSO control, 0.3 μM) CDK13” value is given as 76% and the Degradation rates of CDK13 at 0.3 μM turned out to be 76%. Also, in assay [2], the “Protein Degradation (%DMSO control, 0.3 μM) CDK12” value is listed as 62% and the Degradation rates of CDK12 at 0.3 μM is 62%.
